Results published in the supplement of paper PMC11451515.

System: SEM cells
Assay: cell viability relative to DMSO control; higher = less cytotoxic
Conditions: 48 h
Method in brief: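 Library compounds in DMSO were pin-dosed into 1536-well plates (5 μl) holding NOMO1 or SEM (500 cells/well) or P12-Ichikawa (1000 cells/well) leukemia cells, across an 11-point threefold series of 47 μM to 0.79 nM. Each cell line had been adapted for at least four passages in each medium. CellTiter-Glo One luminescence was read after 48 h at 37°C. Viability is the per-plate percentage relative to DMSO wells, with cell-free wells as background.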

[1] = HPLM + 10% dialyzed FBS, 0.000781 µM
[2] = HPLM + 10% dialyzed FBS, 0.00234 µM
[3] = HPLM + 10% dialyzed FBS, 0.00702 µM
[4] = HPLM + 10% dialyzed FBS, 0.0211 µM
[5] = HPLM + 10% dialyzed FBS, 0.0632 µM
[6] = HPLM + 10% dialyzed FBS, 0.19 µM
[7] = HPLM + 10% dialyzed FBS, 0.569 µM
[8] = HPLM + 10% dialyzed FBS, 1.71 µM
[9] = HPLM + 10% dialyzed FBS, 5.12 µM
[10] = HPLM + 10% dialyzed FBS, 15.4 µM
[11] = HPLM + 10% dialyzed FBS, 46.1 µM
[12] = RPMI 5 mM glucose + 10% FBS, 0.000781 µM
[13] = RPMI 5 mM glucose + 10% FBS, 0.00234 µM
[14] = RPMI 5 mM glucose + 10% FBS, 0.00702 µM
[15] = RPMI 5 mM glucose + 10% FBS, 0.0211 µM
[16] = RPMI 5 mM glucose + 10% FBS, 0.0632 µM
[17] = RPMI 5 mM glucose + 10% FBS, 0.19 µM
[18] = RPMI 5 mM glucose + 10% FBS, 0.569 µM
[19] = RPMI 5 mM glucose + 10% FBS, 1.71 µM
[20] = RPMI 5 mM glucose + 10% FBS, 5.12 µM
[21] = RPMI 5 mM glucose + 10% FBS, 15.4 µM
[22] = RPMI 5 mM glucose + 10% FBS, 46.1 µM
[23] = RPMI 5 mM glucose + 10% dialyzed FBS, 0.000781 µM
[24] = RPMI 5 mM glucose + 10% dialyzed FBS, 0.00234 µM
[25] = RPMI 5 mM glucose + 10% dialyzed FBS, 0.00702 µM
[26] = RPMI 5 mM glucose + 10% dialyzed FBS, 0.0211 µM
[27] = RPMI 5 mM glucose + 10% dialyzed FBS, 0.0632 µM
[28] = RPMI 5 mM glucose + 10% dialyzed FBS, 0.19 µM
[29] = RPMI 5 mM glucose + 10% dialyzed FBS, 0.569 µM
[30] = RPMI 5 mM glucose + 10% dialyzed FBS, 1.71 µM
[31] = RPMI 5 mM glucose + 10% dialyzed FBS, 5.12 µM
[32] = RPMI 5 mM glucose + 10% dialyzed FBS, 15.4 µM
[33] = RPMI 5 mM glucose + 10% dialyzed FBS, 46.1 µM

Compound	cell viability [1] [%]	cell viability [2] [%]	cell viability [3] [%]	cell viability [4] [%]	cell viability [5] [%]	cell viability [6] [%]	cell viability [7] [%]	cell viability [8] [%]	cell viability [9] [%]	cell viability [10] [%]	cell viability [11] [%]	cell viability [12] [%]	cell viability [13] [%]	cell viability [14] [%]	cell viability [15] [%]	cell viability [16] [%]	cell viability [17] [%]	cell viability [18] [%]	cell viability [19] [%]	cell viability [20] [%]	cell viability [21] [%]	cell viability [22] [%]	cell viability [23] [%]	cell viability [24] [%]	cell viability [25] [%]	cell viability [26] [%]	cell viability [27] [%]	cell viability [28] [%]	cell viability [29] [%]	cell viability [30] [%]	cell viability [31] [%]	cell viability [32] [%]	cell viability [33] [%]
CO/N=C(\C(=O)N[C@@H]1C(=O)N2C(C(=O)OCOC(=O)C(C)(C)C)=C(/C=C\c3scnc3C)CS[C@H]12)c1csc(N)n1	75.6	89.4	86.9	80.8	93.7	101	94.8	97.3	86.7	90.6	70.4	87.1	90.7	91.4	76.6	89	103	91.5	98.9	86.5	65.2	58.5	75.3	101	108	93.7	119	102	99.4	125	105	73	62.9
COC1=CC=C2/C3=N/CCN3\C(=N/C2=C1OC)NC(=O)C4=CC=CN=C4	98.5	98.2	106	96.8	101	104	96.7	103	87.1	82.5	64.1	91.6	94.4	99.7	89.5	99.5	79.4	85.2	99.6	76.6	80.6	55.7	122	111	111	103	117	113	99	92.9	84	81.1	69.2
CNC(=O)C1=CC=C(C)C(=C1)N2C(=C/C(=C(/Br)C2=O)OCC3=C(F)C=C(F)C=C3)\C	109	116	123	106	126	123	131	130	125	124	120	110	127	124	122	124	116	131	139	116	113	101	115	118	136	136	134	155	148	131	109	120	103
Cc1c(C)c2c(c(C)c1O)CCC(C)(COc1ccc(CC3SC(=O)NC3=O)cc1)O2 (stereo not given)	119	113	127	117	124	117	128	132	141	112	93.1	–	–	–	–	–	–	–	–	–	–	–	104	101	127	106	126	121	136	134	154	95.4	84.9
c1ccc(-c2oc3ncnc(NC[C@@H]4CCCO4)c3c2-c2ccccc2)cc1	115	115	114	121	126	130	125	134	128	121	79.4	111	112	109	103	108	110	105	106	112	99.9	61.1	121	129	115	118	104	136	111	112	118	124	69.6
CCOc1cc(CC(=O)N[C@@H](CC(C)C)c2ccccc2N2CCCCC2)ccc1C(=O)O	83.9	104	121	106	116	109	122	117	132	125	119	103	110	109	109	106	108	118	134	127	129	123	105	113	123	127	109	114	119	137	130	128	134
Cc1ncc([N+](=O)[O-])n1CC(C)O (stereo not given)	60.5	75.1	69.3	75.5	57.6	71.4	91.4	88.1	81.6	82.8	13.3	78.9	99.3	89.4	99.8	64.6	97.8	102	110	96.2	101	14.8	84.2	101	98.4	99.3	84.6	104	118	119	110	99.6	14
NC/1=N/C(=O)N(/C=N1)[C@@H]2O[C@H](CO)[C@@H](O)[C@H]2O	85.7	107	117	106	76.2	100	104	105	75.4	24.5	3.65	95.7	107	99.5	102	70.9	110	90.4	94.8	75.1	35.3	7.85	90.8	87.8	82	90.1	69.7	93.5	82.3	74.6	38.9	6.43	3.29
CON(C)C(=O)N1/N=C(S[C@@]1(CCCN)C2=CC=CC=C2)/C3=CC(=CC=C3F)F	96.3	99.9	42.5	21.7	23.9	24.4	22	21.3	10.6	19.7	15.3	–	–	–	–	–	–	–	–	–	–	–	100	114	111	30.4	24.4	22.7	24.1	24.8	13	22.2	16.4
O.O.CCN1CCN(C(=O)N[C@H](C(=O)N[C@H]2[C@@H]3SC\C(=C(/N3C2=O)C(O)=O)CSC4=NN=N[N]4C)C5=CC=C(O)C=C5)C(=O)C1=O	81	81.3	90.4	20.6	107	95.4	104	101	103	98.6	105	99.1	75.9	99.4	15.1	95.3	104	107	94.5	90.9	117	98.8	88.1	80.5	97.6	17.3	91.6	106	101	99.7	104	93.4	103
NC(=O)c1ncn([C@@H]2O[C@H](CO)[C@@H](O)[C@H]2O)c1O	128	118	82.8	120	117	117	115	130	118	123	104	112	127	89.1	137	131	131	115	118	121	117	114	98.7	104	85.8	128	121	104	112	115	113	116	113
OC(CN1CCN(c2cccc(Cl)c2)CC1)C(c1ccccc1)c1ccccc1 (stereo not given)	99.1	97.9	102	101	104	110	92.1	10.6	8.66	7.09	7.14	101	95.2	106	107	111	32.4	24	6.74	8	8.3	7.07	111	95.2	104	103	105	38.2	42.9	7.36	8.19	8.02	7.53
O=C(/C=C/c1ccc(O)cc1)c1ccc(O)cc1O	113	112	131	108	141	131	120	109	124	81.2	26.6	118	122	134	125	124	133	106	116	111	79.6	17	98	94.4	118	91.9	121	105	100	91	81.8	59.5	9.38
C[C@](N)(Cc1ccc(O)c(O)c1)C(=O)O	83.9	85.7	94.4	86.3	102	92.5	84.1	81.7	83	74.8	6.26	94.7	106	100	111	103	81.6	69.2	93.5	86.2	72.9	3.7	103	93.7	95.9	111	97.8	91.1	98.5	96.1	88.2	77.4	4.47
